ChEMBL document CHEMBL1146218, “Highly brominated mono- and bis-phenols from the marine red alga Symphyocladia latiuscula with radical-scavenging activity” (J Nat Prod, 2007)

Experiment: DPPH radical scavenging activity
Type: functional

Row | SMILES | IC50 [µM]
1 | Oc1c(O)c(Br)c(COCc2c(Br)c(O)c(O)c(Br)c2Br)c(Br)c1Br | 8.5
2 | Cc1c(Br)c(O)c(O)c(Br)c1Br | 14
3 | O=C1CCCN1Cc1c(Br)c(O)c(O)c(Br)c1Br | 18.5
4 | COCc1c(Br)c(O)c(O)c(Br)c1Cc1c(Br)c(O)c(O)c(Br)c1Br | 10.5
5 | CS(=O)(=O)Cc1c(Br)c(O)c(O)c(Br)c1Br | 24
6 | Oc1c(O)c(Br)c(CCc2c(Br)c(O)c(O)c(Br)c2Br)c(Br)c1Br | 10.2

Further compounds by falling IC50, results first:

Row | IC50 [µM] | SMILES
7 | 81.8 | Cc1cc(C(C)(C)C)c(O)c(C(C)(C)C)c1 [BUTYLATED HYDROXYTOLUENE]
8 | 24.7 | O=Cc1c(Br)c(O)c(O)c(Br)c1Br
9 | 15.5 | COCc1c(Br)c(O)c(O)c(Br)c1Br
10 | 8.1 | Oc1c(O)c(Br)c(Cc2c(Br)c(O)c(O)c(Br)c2Br)c(Br)c1Br
